Assay [1] concerns the target human alpha1 nicotinic acetylcholine (nACh) receptor (Homo sapiens, UniProt P02708+Q07001). Kind of assay: Nicotinic acetylcholine receptor antagonism assay, IONFlux automated patch clamp (Example 203). The following applies: for Emax at 100 µM: maximum percentage antagonism at maximum concentration tested 100 μM, read-out: Maximum Response (%); for IC50: nAChR antagonism, ACh stimulated, patch clamp. Type of assay: cell-based. Here is the method:
Cells expressing human alpha1 nicotinic acetylcholine (nACh) receptor (nAChR) were washed and dissociated using Trypsin containing buffer. Cells were then washed and seeded at a density of 3-5 million cells/mL and allowed to grow for 3 days. Then, 60-80 μL of cells were added to plates and incubated with dose response of an ARM compound of Formula (I) with a top concentration of either 10 μM or 100 μM. The receptor was then stimulated via addition of acetylcholine (ACh) and activation of the receptor was monitored via the IONFlux automated patch clamp system. IonFlux Data Analyzer software was utilized to perform leak subtraction and measure (min) peak current amplitude.
Data processing: (1) Current values recorded for vehicle only applications in individual traps/patterns were subtracted from corresponding current amplitude values for control, test article and control+test article. (2) Control response was calculated as % of the average response of the 3rd out of total 3 ACh (10 mM) applications alone. In rare situations, if the 3rd ACh response was obscured due to technical artifacts, the 2nd and/or 1 st ACh (10 mM) application was considered as control. The peak current amplitude generated in the presence of each test article concentration was then used to calculate the % inhibition as compared to control response (10 mM ACh alone). These estimates were further corrected for vehicle response and run down corrected by normalizing with time matched control responses (10 mM ACh alone). The corrected percentages were then fit with a non-linear function in GraphPad Prism 6 (or later versions) to determine the […].
Exclusion criteria: (i) any n's with poor recording quality, (ii) control current amplitude <500 pA or (iii) significant outliers, as determined by the Grubbs' test.
ARMs compounds of Formula (I) of the invention were tested for antagonism of the nAChR in the above assay in […] experimental runs and the results are shown in Table 7 below. Antagonistic activity of the compounds of Formula (I) of the invention is reported as an IC50 value (half maximal inhibitory concentration) and the maximum percentage antagonism observed at the highest concentration of compound of Formula (I) tested, as indicated in Table 7. For compounds tested in more than one experimental run, the IC50 value is reported as an average.

In assay [2] the target is T1, CHOK1 cells engineered to overexpress human CCR2 (Homo sapiens, UniProt P41597).
T1 construct: expressed in transfected cells; host or cells: CHOK1 cells
Kind of assay: Antibody dependent cellular cytotoxicity (ADCC) reporter assay (Example 199). Type of assay: cell-based. The following applies: with anti-cotinine antibody SEQ ID NO: 11/12; CHOK1-human CCR2 target cells, Jurkat FcγRIIIa NFAT-luciferase reporter cells; 12-18 hours; read-out: ADCC Reporter Assay pEC50 (converted). The gist of the method:
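CHOK1-hCCR2 target cells are co-incubated for 12–18 h with Jurkat FcγRIIIa/NFAT-luciferase reporter cells, ARM compound (1 pM–10 μM) and anti-cotinine antibody with a DE-mutant human IgG1 Fc (0.01–200 μg/mL). Luminescence is expressed as signal:background against no-compound wells; EC50 comes from nonlinear fit and is reported as pEC50, averaged across runs.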
(In general: In a reporter assay the amount or activity of a reporter protein is the signal.)

Where “and” joins values, the source holds several entries; their conditions need not be identical. Equal entries are not always repeated. Structures can show the parent of a compound that is named as a salt.

As a reminder, the IC50 is the concentration at which inhibition is half-maximal.

Sequence of human alpha1 nicotinic acetylcholine (nACh) receptor (P02708 21-457): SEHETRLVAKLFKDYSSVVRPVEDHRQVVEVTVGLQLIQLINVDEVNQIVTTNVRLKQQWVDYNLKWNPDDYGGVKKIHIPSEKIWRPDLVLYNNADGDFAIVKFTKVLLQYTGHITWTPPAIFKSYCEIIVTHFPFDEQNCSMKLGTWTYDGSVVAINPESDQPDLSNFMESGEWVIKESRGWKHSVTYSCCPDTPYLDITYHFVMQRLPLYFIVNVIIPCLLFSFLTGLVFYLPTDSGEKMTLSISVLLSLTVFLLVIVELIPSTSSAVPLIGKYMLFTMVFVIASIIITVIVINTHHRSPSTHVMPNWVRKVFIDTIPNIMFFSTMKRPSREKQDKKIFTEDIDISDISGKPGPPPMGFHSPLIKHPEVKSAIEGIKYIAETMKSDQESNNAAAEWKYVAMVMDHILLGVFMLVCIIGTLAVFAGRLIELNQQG
Sequence of human alpha1 nicotinic acetylcholine (nACh) receptor (P11230 24-501 partner): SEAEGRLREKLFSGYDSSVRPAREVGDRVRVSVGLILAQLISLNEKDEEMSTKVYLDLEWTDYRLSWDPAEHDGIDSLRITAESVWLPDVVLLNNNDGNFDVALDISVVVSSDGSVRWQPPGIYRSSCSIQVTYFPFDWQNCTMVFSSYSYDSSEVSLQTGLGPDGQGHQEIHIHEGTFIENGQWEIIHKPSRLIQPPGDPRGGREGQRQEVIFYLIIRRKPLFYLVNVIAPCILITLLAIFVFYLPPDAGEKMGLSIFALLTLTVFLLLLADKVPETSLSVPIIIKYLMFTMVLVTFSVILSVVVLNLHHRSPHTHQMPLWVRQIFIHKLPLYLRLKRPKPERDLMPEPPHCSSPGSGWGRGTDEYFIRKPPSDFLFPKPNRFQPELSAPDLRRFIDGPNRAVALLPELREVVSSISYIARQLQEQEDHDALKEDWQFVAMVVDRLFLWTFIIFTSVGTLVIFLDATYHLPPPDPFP
Sequence of human alpha1 nicotinic acetylcholine (nACh) receptor (Q07001 22-517): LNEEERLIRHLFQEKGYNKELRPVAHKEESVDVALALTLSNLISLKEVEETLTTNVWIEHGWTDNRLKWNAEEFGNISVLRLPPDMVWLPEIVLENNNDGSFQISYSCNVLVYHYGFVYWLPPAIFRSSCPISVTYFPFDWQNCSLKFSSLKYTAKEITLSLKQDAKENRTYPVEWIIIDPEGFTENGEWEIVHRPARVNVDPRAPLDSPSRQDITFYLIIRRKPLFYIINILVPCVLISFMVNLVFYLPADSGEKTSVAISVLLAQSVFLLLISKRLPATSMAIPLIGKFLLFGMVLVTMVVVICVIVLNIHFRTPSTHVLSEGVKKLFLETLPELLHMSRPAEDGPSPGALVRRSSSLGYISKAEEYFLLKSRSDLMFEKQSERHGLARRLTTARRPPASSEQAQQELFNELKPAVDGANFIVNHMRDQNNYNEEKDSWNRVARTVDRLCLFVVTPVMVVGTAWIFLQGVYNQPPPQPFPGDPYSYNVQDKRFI

For the molecule `CC(C)N(C)[C@@H]1CC[C@H](N2CC[C@H](Nc3ncnc4ccc(C(F)(F)F)cc34)C2=O)[C@H](NC(=O)[C@H]2C[C@H](NC(=O)CCCO[C@H]3CC[C@H](OCCNC(=O)[C@H]4CC(=O)N(C)[C@@H]4c4cccnc4)CC3)C2)C1` [Example 8], in assay [1], the Emax at 100 µM amounted to 73.1% and the IC50 was 47200 nM. The EC50 in assay [2] is 0.631 nM.
For `CC(C)N(C)[C@@H]1CC[C@H](N2CC[C@H](Nc3ncnc4ccc(C(F)(F)F)cc34)C2=O)[C@H](NC(=O)[C@H]2C[C@@H](NC(=O)CCCO[C@H]3CC[C@H](OCCNC(=O)[C@H]4CC(=O)N(C)[C@@H]4c4cccnc4)CC3)C2)C1` [Example 9] the same measures were 53.9%, 82000 nM and 25.1 nM.
`CC(C)N(C)[C@@H]1CC[C@H](N2CC[C@H](Nc3ncnc4ccc(C(F)(F)F)cc34)C2=O)[C@H](NC(=O)[C@H]2CC[C@@H](NC(=O)CCOCCCNC(=O)CCCNC(=O)[C@H]3CC(=O)N(C)[C@@H]3c3cccnc3)CC2)C1` [Example 17, (2S,3S)-N-(4-((3-(3-(((1S,4s)-4-(((1R,2S,5R)-5-(Isopropyl(methyl)amino)-2-((S)-2-oxo-3-((6-(trifluoromethyl)quinazolin-4-yl)amino)pyrrolidin-1-yl)cyclohexyl)carbamoyl)cyclohexyl)amino)-3-oxopropoxy)propyl)amino)-4-oxobutyl)-1-methyl-5-oxo-2-(pyridin-3-yl)pyrrolidine-3-carboxamide]: in assay [1], the Emax at 100 µM amounted to 55.1% and the IC50 is at least 100000 nM. Besides, the EC50 in assay [2] is 0.338 nM and 0.656 nM.
For `CC(C)N(C)[C@@H]1CC[C@H](N2CC[C@H](Nc3ncnc4ccc(C(F)(F)F)cc34)C2=O)[C@H](NC(=O)[C@H]2CC[C@@H](NC(=O)CCOCCOCCNC(=O)CCCNC(=O)[C@H]3CC(=O)N(C)[C@@H]3c3cccnc3)CC2)C1` [Example 176, (2S,3S)-N-(4-((2-(2-(3-(((1S,4s)-4-(((1R,2S,5R)-5-(Isopropyl(methyl)amino)-2-((S)-2-oxo-3-((6-(trifluoromethyl)quinazolin-4-yl)amino)pyrrolidin-1-yl)cyclohexyl)carbamoyl)cyclohexyl)amino)-3-oxopropoxy)ethoxy)ethyl)amino)-4-oxobutyl)-1-methyl-5-oxo-2-(pyridin-3-yl)pyrrolidine-3-carboxamide], the EC50 in assay [2] is 0.794 nM and 0.398 nM.
On the same count and under the same terms, the figure for `CC(C)N(CCOCCOCCC(=O)N[C@H]1CC[C@@H](C(=O)N[C@@H]2C[C@H](N(C)C(C)C)CC[C@@H]2N2CC[C@H](Nc3ncnc4ccc(C(F)(F)F)cc34)C2=O)CC1)C(=O)CCCNC(=O)[C@H]1CC(=O)N(C)[C@@H]1c1cccnc1` [Example 177] is 0.501 nM and 0.316 nM; for `CC(C)N(C)[C@@H]1CC[C@H](N2CC[C@H](Nc3ncnc4ccc(C(F)(F)F)cc34)C2=O)[C@H](NC(=O)CCCN2CCC3(CCC(C(=O)NCCNC(=O)[C@H]4CC(=O)N(C)[C@@H]4c4cccnc4)CC3)CC2)C1` [Example 183, 3-(4-(((1R,2S,5R)-5-(Isopropyl(methyl)amino)-2-((S)-2-oxo-3-((6-(trifluoromethyl)quinazolin-4-yl)amino)pyrrolidin-1-yl)cyclohexyl)amino)-4-oxobutyl)-N-(2-((2S,3S)-1-methyl-5-oxo-2-(pyridin-3-yl)pyrrolidine-3-carboxamido)ethyl)-3-azaspiro[5.5]undecane-9-carboxamide, 3 Formic acid salt] it is 0.501 nM.
Same read-out and setting: the figure for `CC(C)N(C)[C@@H]1CC[C@H](N2CC[C@H](Nc3ncnc4ccc(C(F)(F)F)cc34)C2=O)[C@H](NC(=O)C2CCN(C3CCN(C4CCN(CCCCNC(=O)[C@H]5CC(=O)N(C)[C@@H]5c5cccnc5)CC4)CC3)CC2)C1` [Example 185, N-((1R,2S,5R)-5-(isopropyl(methyl)amino)-2-((S)-2-oxo-3-((6-(trifluoromethyl)quinazolin-4-yl)amino)pyrrolidin-1-yl)cyclohexyl)-1″-(4-((2S,3S)-1-methyl-5-oxo-2-(pyridin-3-yl)pyrrolidine-3-carboxamido)butyl)-[1,4′:1′,4″-terpiperidine]-4-carboxamide] is 0.501 nM; for `CC(C)N(C)[C@@H]1CC[C@H](N2CC[C@H](Nc3ncnc4ccc(C(F)(F)F)cc34)C2=O)[C@H](NC(=O)[C@H]2CC[C@H](C3CCN(CCOCCOCCNC(=O)[C@H]4CC(=O)N(C)[C@@H]4c4cccnc4)CC3)CC2)C1` [Example 189, (2S,3S)-N-(2-(2-(2-(4-((1R,4r)-4-(((1R,2S,5R)-5-(Isopropyl(methyl)amino)-2-((S)-2-oxo-3-((6-(trifluoromethyl)quinazolin-4-yl)amino)pyrrolidin-1-yl)cyclohexyl)carbamoyl)cyclohexyl)piperidin-1-yl)ethoxy)ethoxy)ethyl)-1-methyl-5-oxo-2-(pyridin-3-yl)pyrrolidine-3-carboxamide] it is 6.31 nM.
For `CC(C)N(C)[C@@H]1CC[C@H](N2CC[C@H](Nc3ncnc4ccc(C(F)(F)F)cc34)C2=O)[C@H](NC(=O)CCOCCOCCO[C@H]2CC[C@H](OCCNC(=O)[C@H]3CC(=O)N(C)[C@@H]3c3cccnc3)CC2)C1` [Example 192, (2S,3S)-N-(2-(((1R,4S)-4-(2-(2-(3-(((1R,2S,5R)-5-(Isopropyl(methyl)amino)-2-((S)-2-oxo-3-((6-(trifluoromethyl)quinazolin-4-yl)amino)pyrrolidin-1-yl)cyclohexyl)amino)-3-oxopropoxy)ethoxy)ethoxy)cyclohexyl)oxy)ethyl)-1-methyl-5-oxo-2-(pyridin-3-yl)pyrrolidine-3-carboxamide], in assay [1], the Emax at 100 µM came to 53% and the IC50 is 74300 nM.
For the molecule `CC(C)N(C)[C@@H]1CC[C@H](N2CC[C@H](Nc3ncnc4ccc(C(F)(F)F)cc34)C2=O)[C@H](NC(=O)[C@H]2CC[C@@H](NC(=O)CCCOCCCOCCCNC(=O)[C@H]3CC(=O)N(C)[C@@H]3c3cccnc3)CC2)C1` [Example 193, (2S,3S)-N-(3-(3-(4-(((1S,4s)-4-(((1R,2S,5R)-5-(Isopropyl(methyl)amino)-2-((S)-2-oxo-3-((6-(trifluoromethyl)quinazolin-4-yl)amino)pyrrolidin-1-yl)cyclohexyl)carbamoyl)cyclohexyl)amino)-4-oxobutoxy)propoxy)propyl)-1-methyl-5-oxo-2-(pyridin-3-yl)pyrrolidine-3-carboxamide], the EC50 in assay [2] is 0.398 nM and 0.126 nM.
The same measure, in the same setting: the figure for `CC(C)N(C)[C@@H]1CC[C@H](N2CC[C@H](Nc3ncnc4ccc(C(F)(F)F)cc34)C2=O)[C@H](NC(=O)CCCCCCCCNCCOCCOCCOCCOCCNC(=O)[C@H]2CC(=O)N(C)[C@@H]2c2cccnc2)C1` [Example 195, (2S,3S)-N-(24-(((1R,2S,5R)-5-(Isopropyl(methyl)amino)-2-((S)-2-oxo-3-((6-(trifluoromethyl)quinazolin-4-yl)amino)pyrrolidin-1-yl)cyclohexyl)amino)-24-oxo-3,6,9,12-tetraoxa-15-azatetracosyl)-1-methyl-5-oxo-2-(pyridin-3-yl)pyrrolidine-3-carboxamide, 3Trifluoroacetic acid salt] is 0.158 nM; for `CC(C)N(C)[C@@H]1CC[C@H](N2CC[C@H](Nc3ncnc4ccc(C(F)(F)F)cc34)C2=O)[C@H](NC(=O)[C@H]2CC[C@@H](NC(=O)CCOCCCOCCCNC(=O)[C@H]3CC(=O)N(C)[C@@H]3c3cccnc3)CC2)C1` [Example 197, (2S,3S)-N-(3-(3-(3-(((1S,4s)-4-(((1R,2S,5R)-5-(Isopropyl(methyl)amino)-2-((S)-2-oxo-3-((6-(trifluoromethyl)quinazolin-4-yl)amino)pyrrolidin-1-yl)cyclohexyl)carbamoyl)cyclohexyl)amino)-3-oxopropoxy)propoxy)propyl)-1-methyl-5-oxo-2-(pyridin-3-yl)pyrrolidine-3-carboxamide] it is 0.251 nM.
In the case of `CC(C)N(C)[C@@H]1CC[C@H](N2CC[C@H](Nc3ncnc4ccc(C(F)(F)F)cc34)C2=O)[C@H](NC(=O)[C@H]2CC[C@H](N3CCN(CCOCCOCCNC(=O)[C@H]4CC(=O)N(C)[C@@H]4c4cccnc4)CC3)CC2)C1` [compound 190], the EC50 in assay [2] was 2.51 nM.
Same read-out and setting: the figure for `CC(C)N(C)[C@@H]1CC[C@H](N2CC[C@H](Nc3ncnc4ccc(C(F)(F)F)cc34)C2=O)[C@H](NC(=O)CCCCCCCCNCCCCCCCCCCNC(=O)[C@H]2CC(=O)N(C)[C@@H]2c2cccnc2)C1` [compound 196] is 0.251 nM.

The values above are taken from patent publication US20250136722A1, “CYTOTOXICITY TARGETING CHIMERAS” (GLAXOSMITHKLINE INTELLECTUAL PROPERTY DEVELOPMENT LIMITED, priority 2021, published 2025).
